Source: patent US8945862B2, “Triple-fusion constructs and methods of monitoring human embryonic stem cells” (The Board of Trustees of the Leland Stanford Junior …, priority 2007, dated 2015)

Tested on: H9^DF hESCs
Experiment: Bioluminescent imaging of transplanted hESC survival under immunosuppressive drug treatment
Format: in vivo, BALB/c mice
Details: for BLI signal by post-transplant day 10: single drug treatment groups
Description: H1, H9 and H9DF hESCs were initially maintained on top of murine embryonic fibroblasts feeder (MEF) layers as detailed in SI Methods. To prevent contamination of the transplanted hESC population with MEF, hESC colonies were separated from MEF by incubation with dispase (Invitrogen) and subcultured on feeder-free matrigel (hESC qualified, BD Biosciences) coated 6-well plates in mTeSR™ 1 maintenance medium (Stem Cell Technologies) for 2 to 5 passages. MHC expression on hESCs was evaluated by flow cytometry as detailed in SI Methods. Shortly prior to transplantation, hESCs were trypsinated, and resuspended in sterile PBS at 1×10^6 cells per 20 μl. hESC transplantation was performed by direct injection into gastrocnemius muscles of recipient mice (using a 29.5 gauge insulin syringe.
BLI was performed using the Xenogen In Vivo Imaging System as previously described (38). Briefly, mice were anesthetized with isoflurane and D-luciferin was administered intraperitoneally at a dose of 375 mg/kg body weight. At the time of imaging, animals were placed in a light-tight chamber, and photons emitted from luciferase expressing hESCs transplanted into the animals were collected with integration times of 5 sec-5 min, depending on the intensity of the bioluminescence emission. The same mice were scanned repetitively as per the study design. BLI signal was quantified in units of photons per second (Total flux) and presented as Log[photons/sec].

COc1c(C)c2c(c(O)c1C/C=C(\C)CCC(=O)OCCN1CCOCC1)C(=O)OC2 [MMF, mycophenolate mofetil]
improvement of hESC survival by addition of MMF (over single TAC and/or SIR treatment): did not result in significant improvement
BLI signal by post-transplant day 10: decreased to background levels

CO[C@H]1C[C@@H]2CC[C@@H](C)[C@@](O)(O2)C(=O)C(=O)N2CCCC[C@H]2C(=O)O[C@H]([C@H](C)C[C@@H]2CC[C@@H](O)[C@H](OC)C2)CC(=O)[C@H](C)/C=C(\C)[C@@H](O)[C@@H](OC)C(=O)[C@H](C)C[C@H](C)/C=C/C=C/C=C/1C [SIR, sirolimus]
BLI signal at day 7 (monotherapy, 1×10^6 H9^DF hESCs in gastrocnemius muscle, NT 4.98±0.04, P<0.05): 6.4±0.29 Log^[photons/sec]

C=CC[C@@H]1/C=C(\C)C[C@H](C)C[C@H](OC)[C@H]2O[C@@](O)(C(=O)C(=O)N3CCCC[C@H]3C(=O)O[C@H](/C(C)=C/[C@@H]3CC[C@@H](O)[C@H](OC)C3)[C@H](C)[C@@H](O)CC1=O)[C@H](C)C[C@@H]2OC [TAC, Tacrolimus]
BLI signal by post-transplant day 10: decreased to background levels
